In patent EP4722219A1 (Gan & Lee Pharmaceuticals Co., Ltd., priority 2023, dated 2024):

How the values were obtained:
T-47D cells = experiment: Inhibition of cell proliferation in T-47D cells (CCK-8); assay type: cell-based; conditions: 6 days treatment, CCK-8 cell viability
Method: Test Example 2 Inhibitory effect of PROTAC compounds provided by the present invention on cell proliferation in T-47D cells
The complete culture medium required for T-47D cells is 1640 (ATCC, Product number: A10491-01) basal culture medium containing 10% fetal bovine serum. T-47D cells were seeded in 96-well plates at a density of 3,000 cells/well, and different concentrations of PROTAC compounds 1-55 provided in the examples of the present invention and positive control sample ARV-471 (source: Inokai) were prepared to treat the cells and incubated at 37 °C, 5% CO2 cell culture incubator for 6 days. According to the manufacturer's instructions, cell viability was detected using a CCK-8 kit (Beyotime, Product number: C0040). The IC50 of each compound after treating for 6 days was calculated using GraphPadPrism software based on the inhibition rate. Table 2 Inhibition IC50 value of T-47D cell proliferation by PROTAC compounds provided by the present invention and positive control sample

MCF-7 cells = experiment: Inhibition of cell proliferation in MCF-7 cells (CCK-8); assay type: cell-based; conditions: MCF-7 cell proliferation, 6 days treatment
Method: Test Example 3 Inhibitory effect of PROTAC compounds provided by the present invention on cell proliferation in MCF-7 cells
The complete culture medium required for MCF-7 cells (source ATCC) is DMEM (gibco, Product number: 11995-065) basal culture medium containing 10% fetal bovine serum. MCF-7 cells were seeded in 96-well plates at a density of 800 cells/well, and different concentrations of PROTAC compounds 1-55 provided in the examples of the present invention and positive control sample ARV-471 (source: Inokai) were prepared to treat the cells and incubated at 37 °C, 5% CO2 cell culture incubator for 6 days. According to the manufacturer's instructions, cell viability was detected using a CCK-8 kit (Beyotime, Product number: C0040). The IC50 of each PROTAC compound after treating for 6 days was calculated using GraphPadPrism software based on the inhibition rate. Table 3 Inhibition IC50 value of MCF-7 cell proliferation by PROTAC compounds of the present invention and positive control sample

Row | Compound | IC50 (T-47D cells; Homo sapiens, T47D, 144 h) [nM] | IC50 (MCF-7 cells; Homo sapiens, MCF7, 144 h) [nM] | IC50 (T-47D cells) [nM] | IC50 (MCF-7 cells) [nM]
1 | Cn1c(=O)n(C2CCC(=O)NC2=O)c2ccc3c(c21)OCC31CCN(CC2CCN(c3ccc([C@@H]4c5ccc(O)cc5CC[C@@H]4c4ccccc4)cc3)CC2)CC1 (stereo partly drawn) [ER-P-73, 3-(1'-((1-(4-((1R,2S)-6-hydroxy-2-phenyl-1,2,3,4-tetrahydronaphthalen-1-yl)phenyl)piperidin-4-yl)methyl)-1-methyl-2-oxo-1,2-dihydro-3H,7H-spiro[benzofuro[6,7-d]imidazole-6,4'-piperidin]-3-yl)piperidine-2,6-dione] | 49.4 | 3270 |  | 
2 | Cn1c(=O)n(C2CCC(=O)NC2=O)c2ccc3c(c21)C1(CCN(C2CCN(C(=O)C4CCN(c5ccc([C@@H]6c7ccc(O)cc7CC[C@@H]6c6ccccc6)cc5)CC4)CC2)CC1)CO3 (stereo partly drawn) [ER-P-77, 3-(1'-(1-(4-(((1R,2S)-6-hydroxy-2-phenyl-1,2,3,4-tetrahydronaphthalen-1-yl)phenyl)piperidine-4-carbonyl)piperidin-4-yl)-1-methyl-2-oxo-1,2-dihydro-3H,7H-spiro[benzofuro[4,5-d]imidazole-8,4'-piperidin]-3-yl)piperidine-2,6-dione] | 1.87 | 84.7 |  | 
3 | O=C1CC[C@H](NC(=O)c2cc3c(cc2F)OCC32CCN(CC3CCC(OC4CCN(c5ccc([C@@H]6c7ccc(O)cc7CC[C@@H]6c6ccccc6)cc5)CC4)CC3)CC2)C(=O)N1 (stereo partly drawn) [ER-P-83, N-((S)-2,6-dioxopiperidin-3-yl)-6-fluoro-1'-(((1S,4R)-4-((1-(4-((1R,2S)-6-hydroxy-2-phenyl-1,2,3,4-tetrahydronaphthalen-1-yl)phenyl)piperidin-4-yl)oxy)cyclohexyl)methyl)-2H-spiro[benzofuran-3,4'-piperidine]-5-carboxamide] |  |  | 138 | 4330
4 | Cn1c(=O)n(C2CCC(=O)NC2=O)c2cc3c(cc21)C1(CCN(C(=O)CN2CCC4(CCN(c5ccc([C@@H]6c7ccc(O)cc7CC[C@@H]6c6ccccc6)cc5)CC4)C2)CC1)CO3 (stereo partly drawn) [ER-P-69, 3-(1'-(2-(8-(4-((1R,2S)-6-hydroxy-2-phenyl-1,2,3,4-tetrahydronaphthalen-1-yl)phenyl)-2,8-diazaspiro[4.5]decan-2-yl)acetyl)-1-methyl-2-oxo-1,2-dihydro-3H,6H-spiro[benzofuro[5,6-d]imidazole-7,4'-piperidin]-3-yl)piperidine-2,6-dione] | 0.28 | 1.43 |  | 
5 | CN(CC(=O)N1CCC2(CC1)COc1c2ccc2c1n(C)c(=O)n2C1CCC(=O)NC1=O)CC1CCN(c2ccc([C@@H]3c4ccc(O)cc4CC[C@@H]3c3ccccc3)cc2)CC1 (stereo partly drawn) [ER-P-75, 3-(1'-(N-((1-(4-((1R,2S)-6-hydroxy-2-phenyl-1,2,3,4-tetrahydronaphthalen-1-yl)phenyl)piperidin-4-yl)methyl)-N-methylglycyl)-1-methyl-2-oxo-1,2-dihydro-3H,7H-spiro[benzofuro[6,7-d]imidazole-6,4'-piperidin]-3-yl)piperidine-2,6-dione] | 1.16 | 3000 |  | 
6 | O=C1CCC(N2Cc3c(ccc4c3OCC43CCC4(CC3)CN(CC3CCC(OC5CCN(c6ccc([C@@H]7c8ccc(O)cc8CC[C@@H]7c7ccccc7)cc6)CC5)CC3)C4)C2=O)C(=O)N1 (stereo partly drawn) [ER-P-78, 3-(1-(((1S,4S)-4-((1-(4-((1R,2S)-6-hydroxy-2-phenyl-1,2,3,4-tetrahydronaphthalen-1-yl)phenyl)piperidin-4-yl)oxy)cyclohexyl)methyl)-6"-oxo-6'',8''-dihydro-2"H,7"H-dipyrine[azetidine-3,1'-cyclohexane-4',3"-furo[2,3-e]isoindol]-7"-yl)piperidine-2,6-dione] |  |  | 5.8 | 737
7 | CN(CC(=O)N1CC2(CCC3(CC2)COc2c3ccc3c2CN(C2CCC(=O)NC2=O)C3=O)C1)C1CCC2(CC1)CN(c1ccc([C@@H]3c4ccc(O)cc4CC[C@@H]3c3ccccc3)cc1)C2 (stereo partly drawn) [ER-P-72, 3-(1-(N-(2-(4-((1R,2S)-6-hydroxy-2-phenyl-1,2,3,4-tetrahydronaphthalen-1-yl)phenyl)-2-azaspiro[3.5]nonan-7-yl)-N-methylglycyl)-6"-oxo-6",8"-dihydro-2"H,7"H-dipyridole[azetidine-3,1'-cyclohexane-4',3"-furo[2,3-e]isoindol]-7"-yl)piperidine-2,6-dione] | 1.34 | 14300 |  | 
8 | O=C1CCC(N2Cc3c(ccc4c3OCC43CCC4(CCN(C[C@H]5CC[C@@H](OC6CCN(c7ccc([C@@H]8c9ccc(O)cc9CC[C@@H]8c8ccccc8)cc7)CC6)CC5)CC4)CC3)C2=O)C(=O)N1 (stereo partly drawn) [ER-P-79, 3-(1"-(((1S,4S)-4-((1-(4-((1R,2S)-6-hydroxy-2-phenyl-1,2,3,4-tetrahydronaphthalen-1-yl)phenyl)piperidin-4-yl)oxy)cyclohexyl)methyl)-6-oxo-6,8-dihydro-2H,7H-dispiro[furo[2,3-e]isoindole-3,1'-cyclohexane-4',4"-piperidin]-7-yl)piperidine-2,6-dione] |  |  | 8.46 | 63.4
9 | N-((S)-2,6-dioxopiperidin-3-yl)-6'-fluoro-1-(((1 S,4R)-4-((1-(4-((1R,2S)-6-hydroxy-2-phenyl-1,2,3,4-tetrahydronaphthalen-1-yl)phenyl)piperidin-4-yl)oxy)cyclohexyl)methy l)spiro[azetidine-3,2'-chromane]-7'-carboxamide [ER-P-85] |  |  | 70.9 | 956
10 | O=C1CCC(NC(=O)c2cc3c(cc2F)OC2(CC3)CCN(CC3CCC(OC4CCN(c5ccc(C6c7ccc(O)cc7CCC6c6ccccc6)cc5)CC4)CC3)CC2)C(=O)N1 [ER-P-89, N-((S)-2,6-dioxopiperidin-3-yl)-7-fluoro-1'-(((1S,4s)-4-((1-(4-((1R,2S)-6-hydroxy-2-phenyl-1,2,3,4-tetrahydronaphthalen-1-yl)phenyl)piperidin-4-yl)oxy)cyclohexyl)methyl)spiro[chromane-2,4'-piperidine]-6-carboxamide] | 104 | 2740 |  | 
11 | Cn1c(=O)n(C2CCC(=O)NC2=O)c2ccc3c(c21)OCC31CCN(C2CCN(C3CCN(c4ccc([C@@H]5c6ccc(O)cc6CC[C@@H]5c5ccccc5)cc4)CC3)CC2)CC1 (some centres unmarked) | 1.71 | 11.7 |  | 
12 | O=C1CCC(NC(=O)c2cc3c(cc2F)C2(CCN(CC4CCC(OC5CCN(c6ccc(C7c8ccc(O)cc8CCC7c7ccccc7)cc6)CC5)CC4)CC2)CO3)C(=O)N1 [ER-P-87, N-((S)-2,6-dioxopiperidin-3-yl)-5-fluoro-1'-(((1S,4R)-4-((1-(4-((1R,2S)-6-hydroxy-2-phenyl-1,2,3,4-tetrahydronaphthalen-1-yl)phenyl)piperidin-4-yl)oxy)cyclohexyl)methyl)-2H-spiro[benzofuran-3,4'-piperidine]-6-carboxamide] | 53 | 4000 |  | 
13 | O=C1CCC(N2Cc3c(ccc4c3OCC43CCC4(CCN(C(=O)C5CCN(c6ccc([C@@H]7c8ccc(O)cc8CC[C@@H]7c7ccccc7)cc6)CC5)CC4)CC3)C2=O)C(=O)N1 (stereo partly drawn) [ER-P-76, 3-(1"-(1-(4-((1R,2S)-6-hydroxy-2-phenyl-1,2,3,4-tetrahydronaphthalen-1-yl)phenyl)piperidine-4-carbonyl)-6-oxo-6,8-dihydro-2H,7H-dipyridole[furo[2,3-e]isoindole-3,1'-cyclohexane-4',4"-piperidin]-7-yl)piperidine-2,6-dione] | 5.75 | > 100000 |  | 
14 | Cn1c(=O)n(C2CCC(=O)NC2=O)c2ccc3c(c21)OCC31CCN(C(=O)C2CCN(CC3CCN(c4ccc([C@@H]5c6ccc(O)cc6CC[C@@H]5c5ccccc5)cc4)CC3)CC2)CC1 (some centres unmarked) [ER-P-74] | 1.22 | 2100 |  | 
15 | COc1cc2c(cc1C(=O)NC1CCC(=O)NC1=O)C1(CCN(CC3CCC(OC4CCN(c5ccc(C6c7ccc(O)cc7CCC6c6ccccc6)cc5)CC4)CC3)CC1)CO2 [ER-P-91, N-((S)-2,6-dioxopiperidin-3-yl)-1'-(((1S,4R)-4-((1-(4-((1R,2S)-6-hydroxy-2-phenyl-1,2,3,4-tetrahydronaphthalen-1-yl)phenyl)piperidin-4-yl)oxy)cyclohexyl)methyl)-6-methoxy-2H-spiro[benzofuran-3,4'-piperidine]-5-carboxamide] | 150 | 7940 |  | 
16 | O=C1CCC(NC(=O)c2cc3c(cc2F)CCC2(CCN(CC4CCC(OC5CCN(c6ccc(C7c8ccc(O)cc8CCC7c7ccccc7)cc6)CC5)CC4)CC2)O3)C(=O)N1 [ER-P-90, N-((S)-2,6-dioxopiperidin-3-yl)-6-fluoro-1'-((((1S,4R)-4-((1-(4-((1R,2S)-6-hydroxy-2-phenyl-1,2,3,4-tetrahydronaphthalen-1-yl)phenyl)piperidin-4-yl)oxy)cyclohexyl)methyl)spiro[chromane-2,4'-piperidine]-7-carboxamide] | 171 | 3650 |  | 
